Laboratory results as given in US20240109852A1, “Ferroptosis-HDAC Inhibitor Hybrid Anticancer Agents” (The University of Toledo, priority 2022, published 2024).
Like-named read-outs stand apart in the source and are kept apart here.

Legend:
[1] = tested on: hTERT-immortalized RPE cells (retinal pigment epithelial cells); assay: Cell viability assay (methylene blue staining), RPE normal cells; assay type: cell-based, human
Protocol: (§2) Cell viability was assessed using methylene blue staining: cells were plated at 5000/well in 96 well plates (n=3) respectively and treated the next day. Three days after treatment cells were fixed/stained in methylene blue saturated in 50% ethanol for 30 min at RT. Plates were washed with excess water to wash off extra dye.

NCI-H522 cells = assay: Time-lapse microscopy of cell death in NCI-H522 cells; assay type: cell-based, human; settings: for time from initiation of ferroptosis until most/all cells were dead: CETZOLE-1 20 μM (most cells), HY-1 5 μM (all cells); for time of initiation of ferroptosis after treatment: CETZOLE-1 20 μM, HY-1 5 μM
Protocol: For time lapse imaging, NCI-H522 cells were plated at ˜70% density and left overnight to adhere and pre-equilibrate to 10% CO2. The next day cells were treated with DMSO or inhibitors, and the flask was maintained sealed. Flasks were placed on a 37° C. heated stage on an inverted microscope. Images were captured every 12 min and for a total of 300 images using a ×40 microscope objective and an Olympus C740 digital camera controlled by AmScope software. Image analysis was done using Image J. For the Kaplan-Maier graphs at least 100 cells were counted and the event of cell death was measured on a time frame of either 1 h or 0.2 h.

[2] = tested on: SH-SY5Y cell line (human neuroblastoma); assay: MTT cell viability assay on SH-SY5Y neuronal cells; assay type: cell-based; settings: for effect on neuronal cells (neurotoxicity), SH-SY5Y viability: 0.5×IC50, 1×IC50, 2×IC50 of the corresponding control on H522
Protocol: Human neuroblastoma cells (SH-SY5Y) were grown on poly-D-lysine coated plates and cultured in DMEM/F12 medium (HyClone, Thermo Scientific) containing 10% fetal bovine serum and 1% penicillin-streptomycin. Cells were maintained in a 37° C. incubator with a 5% CO2 atmosphere. Cells were seeded at a density of 15,000 cells in 96 well plates for 36 hr before treatment of drugs. […] G4102) according to the manufacturer's instructions. Cells were treated with amide series analogs for 24 hrs. Briefly, the cells were incubated with MTT reagent for 2 h at 37° C. incubator. Then, the solubilization/stop solution was added to solubilize the formazan products, incubated for 1 hr, and absorbance at 570 was measured using micro-plate reader (SynergyH1, BioTek, USA). DMSO was used a vehicle control. The experimental data represent the means±SD (*P<0.05) of triplicates from three separate experiments. The statistical significance was determined by one-way ANOVA and significant differences P<0.05, P<0.01, P<0.001, and P<0.0001 are symbolized as *, **, ***, and ****, respectively.

[3] = tested on: PC-12 (pheochromocytoma) cells; assay: MTT cytotoxicity on undifferentiated and differentiated PC-12 cells; assay type: cell-based; settings: both non-differentiated and NGF-differentiated states
Protocol: Pheochromocytoma (PC-12) cells were grown on poly-D-lysine coated plates and cultured in DMEM/F12 medium (HyClone, Thermo Scientific) containing 5% fetal bovine serum, 5% horse serum, and 1% penicillin-streptomycin. Cells were maintained in a 37° C. incubator with a 5% CO2 atmosphere. Cells were seeded at a density of 15,000 cells per well in 96 well plates for 36 hr before treatment with the test compounds. The MTT assay was performed after 24 hr of treatment.
Pheochromocytoma (PC-12) cells were seeded on poly-D-lysine coated plates containing neuron differentiation medium (100 ng nerve growth factor, DMEM/F12, 5% fetal bovine serum, 5% horse serum, and 1% penicillin-streptomycin) and grown for 5 days to differentiate to neurons. Cells were maintained in a 37° C. incubator with a 5% CO2 atmosphere. Cells were trypsinized, and seeded at a density of 15,000 cells/well in 96 well plates with neuron differentiation medium for 36 hr before treatment with the test compounds. The MTT assay was performed after 24 hr of treatment.

[4] = tested on: NCI-60 human tumor cell lines; assay: NCI-60 five dose assay, whole panel; assay type: cell-based
[5] = tested on: WI-38 cells (normal human lung fibroblasts); assay: Cell viability assay (methylene blue staining), WI-38 normal cells; assay type: cell-based; settings: concentration of therapeutic relevance (2 μM), mesenchymal system
Protocol: as §2

[6] = tested on: lipid peroxides in NCI-H522 cells; assay: C11-BODIPY lipid peroxidation assay (flow cytometry); assay type: cell-based, human; settings: NCI-H522, 10 μM, within 6 hours of treatment
Protocol: NCI-H522 cells (˜70% density) were plated on 7 cm dishes and let overnight to adhere. […] After 6 h, cells were washed with 1×PBS and collected by trypsinization and centrifugation. The cells were washed once with 1×PBS and resuspended in PBS containing 2% FBS. Cells were analyzed using a BD LSR Fortessa FACScanner and FlowJo software. For each sample 20×10^3 cells were analyzed.

[7] = tested on: NCI-60 human tumor cell lines; assay: NCI-60 one dose assay, whole panel; assay type: cell-based; settings: compared to other hybrids, HDAC controls and SAHA
[8] = tested on: RPMI-8226 (leukemia cell line); assay: NCI-60 five dose assay, RPMI-8226; assay type: cell-based; settings: Homo sapiens, RPMI-8226, read-out: GI50, RPMI-8226
[9] = tested on: NCI-H23 (NSC lung cancer cell line); assay: NCI-60 five dose assay, NCI-H23; assay type: cell-based; settings: Homo sapiens
[10] = tested on: SF-539 cell line (CNS cancer); assay: NCI-60 five dose assay, SF-539; assay type: cell-based; settings: Homo sapiens
[11] = tested on: LOXIMVI (melanoma cell line); assay: NCI-60 five dose assay, LOXIMVI; assay type: cell-based; settings: Homo sapiens, LOX IMVI, read-out: GI50, LOXIMVI
[12] = tested on: IGROV-1 (ovarian cancer cell line); assay: NCI-60 five dose assay, IGROV-1; assay type: cell-based; settings: Homo sapiens
[13] = tested on: PC-3 (prostate cancer cell line); assay: NCI-60 five dose assay, PC-3; assay type: cell-based; settings: Homo sapiens, read-out: GI50, PC-3
[14] = tested on: DU-145 (prostate cancer cell line); assay: NCI-60 five dose assay, DU-145; assay type: cell-based; settings: Homo sapiens
[15] = tested on: NCI-H522 human lung cancer cells; assay: Cell viability assay (methylene blue staining), NCI-H522; assay type: cell-based; settings: NCI-H522, 72 h, read-out: IC50 ± SD (n = 3) on NCI-H522 cell line
Protocol: as §2

[16] = tested on: HCT116 human colorectal carcinoma cells; assay: Cell viability assay (methylene blue staining), HCT-116; assay type: cell-based; settings: HCT-116, 72 h, read-out: IC50 ± SD (n = 3) on HCT-116 cell line
Protocol: as §2

[17] = tested on: acetyl-H3 (K9) (histones, HDAC class I substrate); assay: Western blot, acetyl-H3 (K9) in NCI-H522 cells; assay type: cell-based, human; settings: NCI-H522, concentration of 5 μM
From the text: (§1) Bound antibodies were detected using enhanced chemiluminescence (Biorad).

[18] = tested on: acetyl tubulin (class II, HDAC-6 substrate); assay: Western blot, acetyl tubulin in NCI-H522 cells; assay type: cell-based, human; settings: NCI-H522, concentration of 5 μM
From the text: as §1

[19] = tested on: HS578 (breast cancer cell line); assay: NCI-60 five dose assay, HS578; assay type: cell-based; settings: Homo sapiens
[20] = tested on: NCI-H23 cell line (NSC-Lung cancer); settings: one dose; SAHA data from the public data base of NCI; cited from earlier work
[21] = tested on: DU-145 cells (prostate cancer); settings: one dose; SAHA data from the public data base of NCI; cited from earlier work

With `C#Cc1nc(C2=C(C)C(O)CC2)cs1` (centres unmarked) [CETZOLE-1, reference compound] as the molecule, how does the IC50 ([1]; normal RPE epithelial cells, FBS media (FIGS. 11A, 11C), read-out: IC50 on RPE (selectivity study)) read?
The IC50 was greater than 30 µM.

What about the “time from initiation of ferroptosis until most/all cells were dead” value (NCI-H522 cells) of the same molecule?
Its value is no more than 8 h.

And the “time of initiation of ferroptosis after treatment” value (NCI-H522 cells)?
The value was “approximately 12 hours”.

Which “effect on neuronal cells (neurotoxicity), SH-SY5Y viability” value (shortened to “effect on neuronal cells (neurotoxicity)”) [2] does the source give for `C#Cc1nc(C(=O)NCCCCCCC(=O)OC)cs1` [FC-1, Methyl 7-(2-ethynylthiazole-4-carboxamido)heptanoate] here?
Its value is “significant neurotoxicity”.

What about the “sensitivity of differentiated and undifferentiated PC-12 cells” value [3] of the same molecule?
Its value is “resistant”.

For `O=C(CCCCCCNC(=O)c1csc(Br)n1)NO` [HC-1, 2-Bromo-N-(7-(hydroxyamino)-7-oxoheptyl)thiazole-4-carboxamide], which “effect on neuronal cells (neurotoxicity)” value [2] is on record?
The value was “very mild toxicity”.

And the GI50 ([4]; read-out: average GI50)?
The GI50 was 1.51 µM.

With `C#Cc1nc(C(=O)NCCCCCCC(=O)NO)cs1` [HY-1, 2-Ethynyl-N-(7-(hydroxyamino)-7-oxoheptyl)thiazole-4-carboxamide] as the molecule, how does the “toxic effects on normal cells (WI-38)” value [5] read?
The value was “no toxic effects on normal cells”.

What about the “toxicity on normal cells (RPE)” value ([1]; concentration of therapeutic relevance (2 μM), epithelial system) of the same molecule?
Its value is “no toxicity was observed on the normal cells”.

What about the “neurotoxic effects, SH-SY5Y viability” value ([2]; concentrations of therapeutic relevance (2.32 μM)) of the same molecule?
The value was “no neurotoxic effects”.

And the “sensitivity of differentiated and undifferentiated PC-12 cells” value [3]?
Its value is “behaved like the HDAC control HC-1”.

And the “lipid peroxide levels (oxidized C11-BODIPY 581/591)” value [6]?
The value was “increased levels of lipid peroxides”.

What about the “time from initiation of ferroptosis until most/all cells were dead” value (NCI-H522 cells) of the same molecule?
The value was no more than 2 h.

And the “time of initiation of ferroptosis after treatment” value (NCI-H522 cells)?
The value was 8 h.

And the “cytotoxicity profile in the NCI-60 screen” value [7]?
Its value is “best cytotoxicity profile”.

And the GI50 ([4]; read-out: GI50 values as low as)?
The GI50 was no less than 0.02 µM.

And the GI50 ([4]; read-out: average GI50)?
Its GI50 is 0.85 µM.

And the GI50 [8]?
Its GI50 is 0.35 µM.

And the GI50 ([9]; NCI-H23, read-out: GI50, NCI-H23)?
Its GI50 is 0.78 µM.

And the GI50 ([10]; SF-539, read-out: GI50, SF-539)?
Its GI50 is 1 µM.

And the GI50 [11]?
The GI50 was 0.02 µM.

What about the GI50 ([12]; IGROV-1, read-out: GI50, IGROV-1) of the same molecule?
The GI50 was 0.57 µM.

And the GI50 [13]?
Its GI50 is 2 µM.

And the GI50 ([14]; DU-145, read-out: GI50, DU-145)?
The GI50 was 0.36 µM.

With `C#Cc1nc(/C=C\CCCCCC(=O)NO)cs1` [HY-2, (Z)-8-(2-ethynylthiazol-4-yl)-N-hydroxyoct-7-enamide] as the molecule, how does the IC50 [15] read?
Its IC50 is 1.07 µM.

What about the IC50 [16] of the same molecule?
The IC50 was 1.19 µM.

What about the GI50 ([4]; read-out: average GI50) of the same molecule?
The GI50 was 2.18 µM.

With `C#Cc1nc(/C=C/CCCCCC(=O)NO)cs1` [HY-3, (E)-8-(2-ethynylthiazol-4-yl)-N-hydroxyoct-7-enamide] as the molecule, how does the IC50 [15] read?
Its IC50 is 1.59 µM.

And the IC50 [16]?
The IC50 was 4.96 µM.

What about the GI50 ([4]; read-out: average GI50) of the same molecule?
Its GI50 is 3.39 µM.

Which “effect on neuronal cells (neurotoxicity)” value [2] does the source give for `C#Cc1nc(/C=C/C=C/C(=O)NO)cs1` [HY-4, (2E,4E)-5-(2-ethynylthiazol-4-yl)-N-hydroxypenta-2,4-dienamide] here?
Its value is “not showing attenuated neurotoxicity”.

What about the “cytotoxicity profile in the NCI-60 screen” value [7] of the same molecule?
Its value is “worst cytotoxicity profile”.

For `C#Cc1nc(/C=C/C(=O)NO)cs1` [HY-5, (E)-3-(2-ethynylthiazol-4-yl)-N-hydroxyacrylamide], which “H3 hyperacetylation at 5 μM” value [17] is on record?
Its value is “did not show any H3 hyperacetylation”.

What about the “tubulin hyperacetylation at 5 μM” value [18] of the same molecule?
Its value is “tubulin hyperacetylation”.

What about the GI50 ([4]; read-out: average GI50) of the same molecule?
The GI50 was 2.47 µM.

For `COC(=O)CCCCCCNC(=O)c1csc(Br)n1` [NC-1, Methyl 7-(2-bromothiazole-4-carboxamido)heptanoate], which “effect on neuronal cells (neurotoxicity)” value [2] is on record?
The value was “no effect”.

Which “time after treatment at which cells were still alive” value (NCI-H522 cells; SAHA 5 μM) does the source give for `O=C(CCCCCCC(=O)Nc1ccccc1)NO` [SAHA] here?
The value was no less than 60 h.

What about the GI50 ([4]; five dose assay, mean over approximately sixty cell lines, read-out: average GI50) of the same molecule?
Its GI50 is 1.21 µM.

What about the GI50 ([9]; NCI-H23, five dose assay, read-out: GI50, NCI-H23) of the same molecule?
Its GI50 is 2 µM.

What about the GI50 ([10]; SF-539, five dose assay, read-out: GI50, SF-539) of the same molecule?
Its GI50 is 2 µM.

And the GI50 ([11]; five dose assay)?
Its GI50 is 1.25 µM.

What about the GI50 ([12]; IGROV-1, five dose assay, read-out: GI50, IGROV-1) of the same molecule?
Its GI50 is 2 µM.

What about the GI50 ([13]; five dose assay) of the same molecule?
Its GI50 is 1.58 µM.

What about the GI50 ([14]; DU-145, five dose assay, read-out: GI50, DU-145) of the same molecule?
Its GI50 is 1.25 µM.

And the GI50 [19]?
Its GI50 is 2 µM.

And the “Growth %, NCI-H23 (NCI public data base)” value [20]?
Its value is 3.30%.

What about the “Growth %, DU-145 (NCI public data base)” value [21] of the same molecule?
The value was 3.5%.
